Paper PMC7436000, “The Spectrum of Design Solutions for Improving the Activity-Selectivity Product of Peptide Antibiotics against Multidrug-Resistant Bacteria and Prostate Cancer PC-3 Cells” (Molecules, 2020)
≈ marks a conversion by molar mass, not a printed value. Peptide text beside a SMILES is read from it.

Assays:
E. coli clin. isolate = assay type: cell-based, Escherichia coli; details: clin. isolate
Summary of the method: (§1)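 Broth microdilution against mid-exponential cells at 5 × 10^5 CFU/mL; clinical isolates are multidrug-resistant, tested in Mueller Hinton medium, while E. coli MG1655 was grown in LB. Peptide was serially 2-fold diluted from 64 μM to 0.0625 μM and incubated 18 h to 24 h at 37 °C. MIC = lowest concentration without visible growth.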

P. aerug. clin. isolate = assay type: cell-based, Pseudomonas aeruginosa
Summary of the method: as §1

K. pneum. clin. isolate = assay type: cell-based, Klebsiella pneumoniae
Summary of the method: as §1

[1] = test system: Acinetobacter baumannii (ATCC 19606); assay type: cell-based; details: ATCC 19606
Summary of the method: as §1

[2] = test system: Escherichia coli (ATCC 25922); assay type: cell-based; details: ATCC 25922
Summary of the method: as §1

Escherichia coli MG1655 = assay type: cell-based; details: MG1655
Summary of the method: as §1

[3] = test system: Klebsiella pneumoniae (ATCC 13883); assay type: cell-based; details: ATCC 13883
Summary of the method: as §1

[4] = test system: Pseudomonas aeruginosa (ATCC 27853); assay type: cell-based; details: ATCC 27853
Summary of the method: as §1

[5] = test system: Staphylococcus aureus (ATCC 29213); assay type: cell-based; details: ATCC 29213
Summary of the method: as §1

A. baum. clin. isolate = assay type: cell-based, Acinetobacter baumannii
Summary of the method: as §1

S. aureus clin. isolate = assay type: cell-based, Staphylococcus aureus; details: clin. isolate
Summary of the method: as §1

human erythrocytes [6] = experiment: Hemolysis of human erythrocytes; assay type: cell-based; details: 1 h
[7] = test system: human primary dermal fibroblasts; assay type: cell-based; details: 24 h
[8] = test system: PC-3 prostate cancer cell line; assay type: cell-based, human; details: 24 h
human erythrocytes [9] = experiment: Hemolysis of human erythrocytes; assay type: cell-based; details: 24 h

In the case of CC[C@H](C)[C@H](NC(=O)CN)C(=O)NCC(=O)N[C@@H](CCCCN)C(=O)N[C@@H](Cc1ccccc1)C(=O)N[C@@H](CC(C)C)C(=O)N[C@@H](CCCCN)C(=O)N[C@@H](CCCCN)C(=O)N[C@@H](C)C(=O)N[C@@H](CCCCN)C(=O)N[C@@H](CCCCN)C(=O)N[C@@H](Cc1ccccc1)C(=O)NCC(=O)N[C@@H](CCCCN)C(=O)N[C@@H](C)C(=O)N[C@@H](Cc1ccccc1)C(=O)N[C@H](C(=O)N[C@@H](CC(C)C)C(=O)N[C@H](C(=O)N[C@@H](CC(C)C)C(=O)N[C@@H](CCCCN)C(=O)N[C@@H](CCCCN)C(N)=O)[C@@H](C)CC)C(C)C [PEXA] (H-GIGKFLKKAKKFGKAFVLILKK-NH2), the “MIC (E. coli clin. isolate)” value (E. coli clin. isolate) is reported as 4 µM (≈ 9.85 µg/mL), the “MIC (P. aerug. clin. isolate)” value (P. aerug. clin. isolate) is reported as 16 µM (≈ 39.4 µg/mL) and the “MIC (K. pneum. clin. isolate)” value (K. pneum. clin. isolate) is reported as 4 µM (≈ 9.85 µg/mL). For the same compound, the “MIC (A. baum. ATCC 19606)” value [1] was 1 to 2 µM, the “MIC (E. coli ATCC 25922)” value [2] was 0.5 to 1 µM and the “MIC (E. coli MG1655)” value (Escherichia coli MG1655) was 4 µM (≈ 9.85 µg/mL). For the same compound, the “MIC (K. pneum. ATCC 13883)” value [3] was 2 µM (≈ 4.92 µg/mL), the “MIC (P. aerug. ATCC 27853)” value [4] was 4 µM (≈ 9.85 µg/mL) and the “MIC (S. aureus ATCC 29213)” value [5] was 0.5 µM (≈ 1.23 µg/mL). For the same compound, the “MIC (A. baum. clin. isolate)” value (A. baum. clin. isolate) was 1 to 2 µM, the “MIC (S. aureus clin. isolate)” value (S. aureus clin. isolate) was 2 µM (≈ 4.92 µg/mL) and the HC10 (human erythrocytes [6]) was 1.6 µM. For the same compound, the HC20 (human erythrocytes [6]) was 7 µM, the IC50 [7] was 12 µM and the “(TI/ IC50C) vs. MP1” value [8] was 18. For the same compound, the IC50 [8] was 4 µM, the “TI (HC20/IC20C)” value [8] was 6.7 and the “TI (IC50F/IC50C)” value [8] was 3. For the same compound, the “TI/ IC50C” value [8] was 0.75 and the “HC50 * (extrapolated)” value (human erythrocytes [9]) was 520 * µM.
